Where a SMILES comes first, the peptide text is derived from it. The star is where a group is joined. Cbz = O=C(OCc1ccccc1)*; CH2F = FC*
Legend:
TMS1 CpG island = experiment: Methylation-specific PCR of the TMS1 CpG island after demethylating agent treatment; assay type: cell-based, human; settings: 0.5 μM for 3 days; ZR75-1, Hs578t and MDA MB231 cells
Protocol: Bisulfite modification and methylation-specific PCR were performed as previously described. (Herman, J. G., et al., Proc. Natl. Acad. Sci. U.S.A. 93:9821-9826, 1996) Briefly, 2 μg genomic DNA was denatured by incubation at 37° C. in 0.2N NaOH for 10 min. then treated with 3M sodium metabisulfite and 0.5 M hydroquinone at 50° C. for 16 h. DNA was desalted using Wizard DNA Clean-Ups (Promega). Modification was completed by the addition of NaOH to a final concentration of 0.3M and DNA was recovered by ethanol precipitation. Approximately 50 ng bisulfite-modified DNA was amplified by PCR with the following reaction conditions: 67 mM Tris-HCl, pH 8.8, 16.6 mM NH4SO4, 6.7 μM EDTA, 10 mM β-mercaptoethanol, 6.7 mM MgCl2, 1 μM each primer in a 25 μl reaction. Hot start PCR was performed using an initial 5 minute incubation at 95° C. followed by the addition of 0.5 U Taq polymerase (Life Technologies) and 35 cycles of PCR (95° C., 30 s; 58° C., 30 s; 72° C., 30 s). […]
(§1) If loss of TMS1 expression is directly related to methylation of the CpG island, then expression of TMS1 should be restored following treatment with a demethylating agent. […] Methylation of the TMS1 CpG island was analyzed by methylation specific PCR and expression of TMS1 was analyzed by RT-PCR with β-actin controls. […]

TMS1 transcript = experiment: RT-PCR analysis of TMS1 expression after demethylating agent treatment; assay type: cell-based, human; settings: 0.5 μM for 3 days; ZR75-1, Hs578t and MDA MB231 cells
Protocol: Six μg total RNA was pretreated with DNAse I (Life Technologies) and reverse transcribed using random hexamer primers and MMLV-reverse transcriptase according to the manufacturers instructions (Life Technologies). One/30th of the reverse transcriptase reaction equivalent to 200 ng starting RNA was used directly in a PCR reaction. The PCR reaction conditions were: 67 mM Tris-HCl, pH 8.8, 16.6 mM NH4SO4, 6.7 μM EDTA, 10 mM β-mercaptoethanol, 4.7 mM MgCl2, 10% DMSO, 400 nM each primer in a 25 μl reaction. Hot start PCR was performed using an initial 5 minute incubation at 95° C. followed by the addition of 0.5 U Taq polymerase and 35 cycles of PCR (95° C., 30 s; 50-55° C., 60 s; 72° C., 60 s). Primers used for analysis of TMS1 were TGGGCCTGCAGGAGATG-3′ (SEQ ID NO:13) and 5′-ATTTGGTGGGATTGCCAG-3′ (SEQ ID NO:9) with an annealing temperature of 50° C. Primers used for the analysis for β-actin were 5′-[…]-3′ (SEQ ID NO:14) and 5′-[…]-3′ (SEQ ID NO:15) with an annealing temperature of 55° C. […]
as §1

MTMS22 cells [1] = experiment: MTMS22 cell proliferation with ecdysone-inducible TMS1 expression; assay type: cell-based, human
Protocol: The Ecdysone-Inducible Mammalian Expression System (Invitrogen, Carlsbad, Calif.) was used to create clones of 293 cells that inducibly express mycTMS1. The mycTMS1 cDNA was cloned into the HindIII/XhoI sites of the pIND expression vector (pIND-mycTMS1). EcR-293 cells (Invitrogen, Carlsbad, Calif.) containing the pVgRXR vector were transfected with pIND-mycTMS1 or pIND using Lipofectamine Reagent (Life Technologies, Grand Island, N.Y.). Cells were maintained in selection medium containing 600 μg/ml G418 for 3 weeks to isolate stably transfected colonies. Clonal populations transfected with pIND-mycTMS1 were then tested for inducible expression by western blot analysis after addition of 5 μM pon A.
Human embryonic kidney 293 cells and EcR-293 derivatives (MTMS22 and PIND1) were cultured in DMEM (Life Technologies, Inc. Grand Island, N.Y.) supplemented with 10% fetal bovine serum. MTMS22 and PIND1 cells were maintained in the presence of 400 μg/ml zeocin and 600 μg/ml G418. Transfections of 293 cells were carried out in 24-well dishes with 1×10^5 cells and 0.5 μg total DNA per well using the calcium phosphate method. As a transfection marker, a βgal expression vector (β-gal CMV) was included at a 1:4 ratio with the indicated cDNA constructs. […]

293 cells = experiment: Fluorescence microscopy of TMS1 subcellular localization; assay type: cell-based, human; settings: cells expressing TMS1 in the presence of Z-VAD
Protocol: Cells were fixed in 4% formaldehyde, permeabilized in 0.2% triton X-100 in PBS and blocked with 3% BSA/0.02% triton X-100 in PBS. Coverslips were incubated with myc antibody (9E10) (Santa Cruz Biotechnology, Santa Cruz, Calif.) at a 1:500 dilution, washed 4 times in PBS/0.02% triton X-100 and incubated with a secondary FITC antibody at a 1:2000 dilution. After 3 more washes, cells were stained with Hoechst 33258 dye to visualize nuclei, washed twice in PBS and mounted on slides. Cells were viewed at 400× or 1000× using the Olympus BX60 microscope. Digital images were captured using IP Lab Spectrum v.3.1 software (Scanalytics, Inc., Fairfax, Va.).

pIND1 control cells = experiment: Growth of pIND1 control cells; assay type: cell-based, human; settings: empty-vector control cells
Protocol: (§2) Human embryonic kidney 293 cells and EcR-293 derivatives (MTMS22 and PIND1) were cultured in DMEM (Life Technologies, Inc. Grand Island, N.Y.) supplemented with 10% fetal bovine serum. MTMS22 and PIND1 cells were maintained in the presence of 400 μg/ml zeocin and 600 μg/ml G418. Transfections of 293 cells were carried out in 24-well dishes with 1×10^5 cells and 0.5 μg total DNA per well using the calcium phosphate method. As a transfection marker, a βgal expression vector (β-gal CMV) was included at a 1:4 ratio with the indicated cDNA constructs. In co-transfections with DN-caspase-8 or DN-caspase-9, 0.2 μg of pcDNA-TMS1 was transfected with […] of pcDNA3.1 or DN-caspase-8 or -9 along with 0.1 μg of β-gal CMV as a transfection control.
An ecdysone-regulated expression system was used to create a 293 cell line that inducibly expresses TMS1. […] In addition, a clonal population of cells stably transfected with the empty expression vector was isolated as a control (PIND1). Upon addition of pon A to the MTMS22 cells, mycTMS1 was detectable by western blotting as early as 6 hours after treatment and continued to accumulate in the cells over 48 hours (FIG. 6A). […] By 96 hours, pon A-treated cells were declining in number, confirming cell death. As a biochemical marker for apoptosis, MTMS22 cells were examined for DNA fragmentation in the presence or absence of TMS1 expression. […]

MTMS22 cells [2] = experiment: DNA fragmentation in MTMS22 cells; assay type: cell-based, human
Protocol: Where indicated, MTMS22 cells were treated with 5 μM pon A (Invitrogen) or 40 μM Z-VAD-fmk (Enzyme System Products, Livermore, Calif.). DNA was collected from 2×10^6 cells as previously described. (Burow, M. E., et al. Cancer Research. 58: 4940-4946, 1998) 5 μg of DNA from each sample was visualized by separation on a 2% agarose gel containing ethidium bromide.

NF-κB = experiment: CAT assay for NF-κB activation; assay type: cell-based, human; settings: 293 cells, NF-κB CAT reporter, increasing amounts of TMS1
Protocol: 293 cells plated at 60% confluence in 6 well dishes were transfected with 0.2 μg of the NF-κB CAT reporter construct (pJECAT2.6) and increasing amounts of pcDNA-mycTMS1 by the calcium phosphate method. 0.2 μg of β-gal CMV was included as a transfection control, and the total amount of DNA transfected was kept constant at 2 μg with pcDNA3.1. Cell lysates were collected 36 h after transfection in β-gal lysis buffer (Promega, Madison, Wis.) and assayed for β-gal activity using the β-Galactosidase Enzyme Assay System (Promega, Madison, Wis.) per manufacturer's instructions. CAT assays were performed basically as described. (Ausubel, F. M., et al. Curr. Prot. Mol. Biol., Vol. 2, pp. 9.7.5-9.7.6: John Wiley & Sons, Inc., 1997) In brief, cell lysates were incubated with [^14C]chloramphenicol and n-butyryl CoA. [^14C]-labeled acetylated chloramphenicol was then separated from the nonacetylated form by organic phase extraction, and radioactive counts were determined using a scintillation counter.

Hs578t cells = experiment: Colony formation assay; assay type: cell-based, human; settings: stable expression, 14 days G418 selection, relative to vector control
Protocol: Breast cancer cells, including Hs57 8t, (3×10^5) were seeded into six well dishes and transfected with 1 μg pcDNA3.1 or the TMS1 expression constructs using 5 μl Lipofectamine reagent (Life Technologies). Twenty-four hours after transfection, cells were diluted 1:100-1:500 and seeded into 100 mm dishes in medium containing 400 μg/ml G418. After 14 days of selection, stable G418-resistant colonies were fixed and stained with 50% methanol, 0.25% crystal violet, and counted. The total number of colonies recovered per transfection cells was extrapolated from counting at least 300 G418^r colonies per experiment. The number of colonies recovered from cells transfected with pcDNA3.1 in each experiment was considered to be 100%. Three independent transfection experiments were performed.
Given the proapoptotic function of TMS1, the consequences of TMS1 silencing were determined by re-introducing TMS1 into breast cancer cells lacking endogenous TMS1 expression. Colony forming ability of TMS1 negative breast cancer cells stably transfected with TMS1 expression constructs was analyzed in the following manner. Hs578t cells were transfected with the pcDNA3.1 vector or the indicated TMS1 expression construct. Twenty-four hours after transfection, cells were plated at limiting dilution in G418 selection medium. […]

[3] = test system: 293 human embryonic kidney cells; experiment: Morphological apoptosis assay in transiently transfected 293 cells; assay type: cell-based; settings: 48 h; for apoptosis on ectopic expression: transient transfection of 293 cells
Protocol: 293 human embryonic kidney cells were plated on glass coverslips in 24 well dishes at 1×10^5 cells per well, and were transfected with 0.4 μg of pcDNA3.1 or the TMS1 expression constructs plus 0.1 μg β-galactosidase expression vector (pCMVβgal, Clonetech) using the calcium phosphate precipitation method. Where indicated, 40 μM zVADfmk (Enzyme System Product, Livermore, Calif.) was included during the recovery period. Forty-eight hours after transfection, coverslips were fixed in 4% paraformaldehyde and stained for β-galactosidase activity, using X-gal, and for nuclear morphology, using Hoecsht […] dye. Cells were visualized by phase contrast microscopy. At least 200 β-galactosidase positive cells from randomly selected fields were counted from each transfection. Apoptotic cells were distinguished based on morphologic features typical of adherent cells undergoing apoptosis, including becoming condensed, rounded and detached from the growth surface as described. (McCarthy, J. V. et al., J.Biol.Chem. 273:16968-16975, 1998). Each transfection experiment was repeated three times.
as §2
48 h after transfection, 293 cells were fixed on coverslips and stained for β-gal activity. Nuclei were stained using Hoechst 33258 dye (Sigma, St. Louis, Mo.). […]

[4] = MTMS22 cells with pon A, 40 μM Z-VAD

## Nc1ncn([C@H]2C[C@H](O)[C@@H](CO)O2)c(=O)n1 [5-aza-2′-deoxycytidine]
TMS1 CpG island
  methylation of the TMS1 CpG island: partial demethylation
TMS1 transcript
  expression of TMS1 transcript: re-expression-of TMS1 transcript

## COC(=O)C[C@H](NC(=O)[C@H](C)NC(=O)[C@@H](NC(=O)OCc1ccccc1)C(C)C)C(=O)CF [Z-VAD, Z-VAD-fmk] (Cbz-Val-Ala-Asp(OMe)-CH2F)
MTMS22 cells [1]; [4]
  effect on TMS1-induced cell death: blocked
293 cells
  effect on formation of TMS1-containing spherical aggregates: no effect
pIND1 control cells
  effect on growth of pIND1 control cells: Neither pon A or Z-VAD had any effect
MTMS22 cells [2]; [4]
  effect on TMS1-induced DNA fragmentation: blocked

## CC(C)CC[C@@H](O)[C@](C)(O)[C@H]1CC[C@@]2(O)C3=CC(=O)[C@@H]4C[C@@H](O)[C@@H](O)C[C@]4(C)[C@H]3CC[C@]12C [pon A]
pIND1 control cells
  effect on growth of pIND1 control cells: Neither pon A or Z-VAD had any effect

## TMS1: human TMS1 polypeptide (SEQ ID NO:3) expressed from the TMS1 cDNA in pcDNA3.1
MTMS22 cells [1]; MTMS22 cells, pon A, by 48 hours after induction
  cell growth on induced TMS1 expression: cell growth was significantly inhibited
NF-κB
  NF-κB-dependent transcriptional activation: no effect
Hs578t cells
  inhibition of colony formation: about 70%
MTMS22 cells [2]; MTMS22 cells, pon A, as early as 16 hours, most evident at 48 hours
  DNA laddering on induced TMS1 expression: DNA laddering was observed
[3]; 293 cells, ectopic expression
  increase in cell death: 6 fold
[3]
  apoptosis on ectopic expression: induced apoptosis

## mycTMS1: TMS1 with a myc-epitope tag fused to amino acid 2
[3]
  apoptosis on ectopic expression: induced apoptosis

Reference: US6911306B1, “TMS1 compositions and methods of use” (Emory University, priority 1999, dated 2005)
